According to publication PMC9505425, “Targeting of the Mitochondrial TET1 Protein by Pyrrolo[3,2-b]pyrrole Chelators” (International Journal of Molecular Sciences, 2022):
Values joined by “and” are separate entries in the source; they are usually repeats but may differ in a detail not shown here. Equal entries are not always repeated.

Experiments:
U-118 MG cells = assay: MTT cytotoxicity assay, U-118 MG; format: cell-based, human; conditions: 48 h
Procedure: (§1) The effects of the tested compounds 1–6 on HF-P4, U-118 MG, H1299, BT-20, and Caov-3 cell lines were evaluated by the MTT assay during 48 h treatment (Table 2 and Tables S2–S31). In all tested compounds, we recognized a difference in cytotoxicity between healthy cells (HF-P4) and cancer cell lines (BT-20, Caov-3, and H-1299). […] In the case of ovarian cancer, the authors discovered oncogenic and poor prognosis roles of TET1 in epithelial ovarian carcinoma (EOC). TET1 is believed to demethylate the epigenome and activate numerous oncogenic pathways in EOC. The aforementioned study presents a new mechanism where TET1 contributes to tumor development through collaboration with CK2α [21]. The overexpression of the TET1 protein was also found in triple negative breast cancer and was associated with an activation of PI3K/mTOR pathway and decreased overall survival.
(§2) A human glioblastoma cell line (U118-MG) and a human non-small-cell lung carcinoma cell line (H1299) were used for the cytotoxicity assay (MTT). Both cell lines were generously supplied by Dr. M. Masařik, PhD, Department of Pathological physiology, Masaryk University, Czech Republic. U118-MG cells were cultivated under standard conditions in Dulbecco’s modified Eagle’s medium (ATCC, Manassas, VA, USA) supplemented with 10% FBS and streptomycin (100 μg/mL) at 37 °C at a 5% CO2 atmosphere. H1299 cells were cultivated under standard conditions in RPMI 1640 (BioTech, Prague, Czech Republic) medium supplemented with 10% FBS and streptomycin (100 μg/mL) at 37 °C at a 5% CO2 atmosphere.
(§3) For the cytotoxicity assay, we used the following cell lines: human glioblastoma cell line U118-MG, human mammary gland/breast cell line BT-20, human ovary adenocarcinoma cell line Caov-3, and non-small-cell lung carcinoma H-1299. As previously mentioned, these cell lines contain a high level of the TET1 protein, which corresponds to a lower overall survival. In addition to these cell cultures, we used the human dermal fibroblast cell line HF-P4 as a healthy control. Determination of cytotoxicity was performed using the MTT [3-(4,5-dimethylthiazol-2-yl)-2,5-diphenyltetrazolium bromide] colorimetric assay. Viable cells from each cell line were cultured in 96-well plates (VWR, Stříbrná Skalice, Czech Republic) at a density of 1.0 × 10^5 cells per well and allowed to grow for 24 h in 200 μL of recommended medium. After a 1-day incubation, the medium was replaced with solutions of compounds 1–6 at concentration ranges of 0.1–20 μM. Each concentration was measured four times within one test, and the entire test was repeated three times. Tested compounds 1–6 were dissolved in DMSO and then diluted with corresponding medium to a final volume of 200 μL (maximum 1% DMSO). After 48 h exposure, cells were treated with 175 μL of MTT solution (P-LAB, Prague, Czech Republic) for 2 h. In the next step, MTT solution was removed, and 125 μL of DMSO (Penta, Prague, Czech Republic) was added to solubilize dark crystals of formazan formed in intact cells, and absorbance was measured at 570 nm by the enzyme-linked immunoabsorbent assay reader Infinite® 200 PRO (Tecan, Männedorf, Switzerland). The final DMSO concentration was smaller than 1% (v/v). The absorbance of untreated cells was considered 100%, and IC50 values were calculated by the GraphPad Prism 8 software. As a parameter for cytotoxicity, we used a concentration that inhibits 50% of cell growth (IC50).

H-1299 cells = assay: MTT cytotoxicity assay, H-1299; format: cell-based, human
Procedure: as §1, §2, §3

[1] = MTT cytotoxicity assay, HF-P4; format: cell-based, human; conditions: human, HF-P4 normal human dermal fibroblasts, repeats, read-out: Cell viability %
Procedure: as §1
(§4) A human dermal fibroblast cell line was used for intracellular localization and cytotoxicity assay (MTT). Human fibroblast cells HF-P4 (human fibroblasts—patient 4) are normal dermal fibroblasts, which were obtained from the residual skin of a healthy patient who underwent plastic surgery (with informed consent of the patient). HF-P4 cell lines were obtained from the Department of Plastic Surgery, Third Faculty of Medicine, Charles University and University Hospital Královské Vinohrady, Prague, Czech Republic, as described by Szabo et al., 2011, and Dvořánková et al., 2019 [88, 89], and have been processed in accordance with the relevant local ethics committee and the Declaration of Helsinki protection of patients’ rights and benefits with written and signed informed consent of each patient. Cells were cultivated under standard conditions in Dulbecco’s modified Eagle’s medium (ATCC, Manassas, VA, USA), supplemented with 10% FBS and streptomycin (100 μg/mL) at 37 °C at a 5% CO2 atmosphere.
as §3

HF-P4 cells = assay: MTT cytotoxicity assay, HF-P4; format: cell-based, human; conditions: 48 h; for Cell viability %: repeats
Procedure: as §1, §4, §3

Molecule `Cc1ccc(-n2c(-c3ccc(C(=O)N/N=C/c4ccc(O)cc4O)cc3)cc3c2cc(-c2ccc(C(=O)N/N=C/c4ccc(O)cc4O)cc2)n3-c2ccc(C)cc2)cc1` [Compound 4] has a viability at 0.1 µM (U-118 MG cells; Homo sapiens, U-118-MG, U-118 MG, 100 nM, repeats, read-out: Cell viability %) of 89.7%, a viability at 0.5 µM (U-118 MG cells; Homo sapiens, U-118-MG, U-118 MG, 500 nM, repeats, read-out: Cell viability %) of 81.5% and a viability at 0.75 µM (U-118 MG cells; Homo sapiens, U-118-MG, U-118 MG, 750 nM, repeats, read-out: Cell viability %) of 88.6%. It also gave a viability at 1 µM (U-118 MG cells; Homo sapiens, U-118-MG, U-118 MG, 1 uM, repeats, read-out: Cell viability %) of 88.8%, a viability at 2.5 µM (U-118 MG cells; Homo sapiens, U-118-MG, U-118 MG, 2.5 uM, repeats, read-out: Cell viability %) of 78.8% and a viability at 5 µM (U-118 MG cells; Homo sapiens, U-118-MG, U-118 MG, 5 uM, repeats, read-out: Cell viability %) of 73.7%. The viability at 7.5 µM (U-118 MG cells; Homo sapiens, U-118-MG, U-118 MG, 7.5 uM, repeats, read-out: Cell viability %) was 24.8%, the viability at 10 µM (U-118 MG cells; Homo sapiens, U-118-MG, U-118 MG, 10 uM, repeats, read-out: Cell viability %) was 30% and the viability at 15 µM (U-118 MG cells; Homo sapiens, U-118-MG, U-118 MG, 15 uM, repeats, read-out: Cell viability %) was 21.2%. The viability at 20 µM (U-118 MG cells; Homo sapiens, U-118-MG, U-118 MG, 20 uM, repeats, read-out: Cell viability %) was 15.2%, the IC50 (U-118 MG cells; Homo sapiens, U-118-MG, MTT) was 6.81 µM and the Cell viability % (U-118 MG cells; U-118 MG, 100 nM, repeats, 0.1 µM) was 88.01% and 106.1964%. The Cell viability % (U-118 MG cells; U-118 MG, 500 nM, repeats, 0.5 µM) was 94.35% and 91.8%, the Cell viability % (U-118 MG cells; U-118 MG, 750 nM, repeats, 0.75 µM) was 93.98% and 97.45% and the Cell viability % (U-118 MG cells; U-118 MG, 1 uM, repeats) was 94.85% and 87.1%. The Cell viability % (U-118 MG cells; U-118 MG, 2.5 uM, repeats) was 87.61% and 83.16%, the Cell viability % (U-118 MG cells; U-118 MG, 5 uM, repeats) was 72.71% and 76.46% and the Cell viability % (U-118 MG cells; U-118 MG, 7.5 uM, repeats) was 24.19% and 24.17%. For the same molecule, the Cell viability % (U-118 MG cells; U-118 MG, 10 uM, repeats) was 29.03% and 31.26%, the Cell viability % (U-118 MG cells; U-118 MG, 15 uM, repeats) was 21.17% and 19.82% and the Cell viability % (U-118 MG cells; U-118 MG, 20 uM, repeats) was 15.6756% and 12.31%. The Cell viability % (H-1299 cells; H-1299, 100 nM, 48 h, repeats, 0.1 µM) was 109.0835% and 92.98%, the Cell viability % (H-1299 cells; H-1299, 500 nM, 48 h, repeats, 0.5 µM) was 110.8313% and 69.08% and 86.72% and the Cell viability % (H-1299 cells; H-1299, 750 nM, 48 h, repeats, 0.75 µM) was 86.2% and 81.89%. The Cell viability % (H-1299 cells; H-1299, 1 uM, 48 h, repeats, 1 µM) was 88.02% and 73.99% and 66.83%, the Cell viability % (H-1299 cells; H-1299, 2.5 uM, 48 h, repeats, 2.5 µM) was 77.91% and 68.92% and the Cell viability % (H-1299 cells; H-1299, 5 uM, 48 h, repeats, 5 µM) was 68.74% and 52.75%. The Cell viability % (H-1299 cells; H-1299, 7.5 uM, 48 h, repeats, 7.5 µM) was 38.28% and 33.07%, the Cell viability % (H-1299 cells; H-1299, 10 uM, 48 h, repeats, 10 µM) was 21.64% and 18.84% and the Cell viability % (H-1299 cells; H-1299, 15 uM, 48 h, repeats, 15 µM) was 10.46% and 11.78%. The Cell viability % (H-1299 cells; H-1299, 20 uM, 48 h, repeats, 20 µM) was 7.89% and 6.315%, the viability at 0.1 µM (H-1299 cells; Homo sapiens, NCI-H1299, 48 h, H-1299, 100 nM, repeats, read-out: Cell viability %) was 110% and the viability at 0.75 µM (H-1299 cells; Homo sapiens, NCI-H1299, 48 h, H-1299, 750 nM, repeats, read-out: Cell viability %) was 86.1%. For the same molecule, the viability at 2.5 µM (H-1299 cells; Homo sapiens, NCI-H1299, 48 h, H-1299, 2.5 uM, repeats, read-out: Cell viability %) was 77.6%, the viability at 5 µM (H-1299 cells; Homo sapiens, NCI-H1299, 48 h, H-1299, 5 uM, repeats, read-out: Cell viability %) was 66.7% and the viability at 7.5 µM (H-1299 cells; Homo sapiens, NCI-H1299, 48 h, H-1299, 7.5 uM, repeats, read-out: Cell viability %) was 35.8%. It also gave a viability at 10 µM (H-1299 cells; Homo sapiens, NCI-H1299, 48 h, H-1299, 10 uM, repeats, read-out: Cell viability %) of 14.8%, a viability at 15 µM (H-1299 cells; Homo sapiens, NCI-H1299, 48 h, H-1299, 15 uM, repeats, read-out: Cell viability %) of 11.1% and a viability at 20 µM (H-1299 cells; Homo sapiens, NCI-H1299, 48 h, H-1299, 20 uM, repeats, read-out: Cell viability %) of 7.35%. It also gave an IC50 (H-1299 cells; Homo sapiens, NCI-H1299, MTT, 48 h) of 5.75 µM, a viability at 48 h, 0.1 µM ([1]; HF-P4, 100 nM) of 102% and a viability at 48 h, 0.5 µM ([1]; HF-P4, 500 nM) of 94.9%. For the same molecule, the viability at 48 h, 0.75 µM ([1]; HF-P4, 750 nM) was 84.8%, the viability at 48 h, 1 µM ([1]; HF-P4, 1 uM) was 86% and the viability at 48 h, 2.5 µM ([1]; HF-P4, 2.5 uM) was 74.5%. The viability at 48 h, 5 µM ([1]; HF-P4, 5 uM) was 74.9%, the viability at 48 h, 7.5 µM ([1]; HF-P4, 7.5 uM) was 66.9% and the viability at 48 h, 10 µM ([1]; HF-P4, 10 uM) was 59.9%. The viability at 48 h, 15 µM ([1]; HF-P4, 15 uM) was 45.1%, the viability at 48 h, 20 µM ([1]; HF-P4, 20 uM) was 36.4% and the Cell viability % (HF-P4 cells; HF-P4, 100 nM, 0.1 µM) was 100.6236% and 114.7117%. For the same molecule, the Cell viability % (HF-P4 cells; HF-P4, 500 nM, 0.5 µM) was 87.47% and 94.87%, the Cell viability % (HF-P4 cells; HF-P4, 750 nM, 0.75 µM) was 85.1% and 92.38% and the Cell viability % (HF-P4 cells; HF-P4, 1 uM, 1 µM) was 81.67% and 86.71%. The Cell viability % (HF-P4 cells; HF-P4, 2.5 uM, 2.5 µM) was 86.63% and 76.23%, the Cell viability % (HF-P4 cells; HF-P4, 5 uM, 5 µM) was 73.34% and 61.32% and the Cell viability % (HF-P4 cells; HF-P4, 7.5 uM, 7.5 µM) was 70.27% and 58.24%. For the same molecule, the Cell viability % (HF-P4 cells; HF-P4, 10 uM, 10 µM) was 62.49% and 65.68%, the Cell viability % (HF-P4 cells; HF-P4, 15 uM, 15 µM) was 53.94% and 54.86% and the Cell viability % (HF-P4 cells; HF-P4, 20 uM, 20 µM) was 38.68% and 44.63%. For the same molecule, the IC50 (HF-P4 cells; Homo sapiens, MTT) was 13.1 µM and the melting point was 328 to 329 °C.
